Assay results: publication PMC3421993 (Journal of Experimental Botany, 2012)

Target: T1, HRP (horseradish peroxidase) (Armoracia rusticana, UniProt P00433)
T1 sequence (P00433 31-338): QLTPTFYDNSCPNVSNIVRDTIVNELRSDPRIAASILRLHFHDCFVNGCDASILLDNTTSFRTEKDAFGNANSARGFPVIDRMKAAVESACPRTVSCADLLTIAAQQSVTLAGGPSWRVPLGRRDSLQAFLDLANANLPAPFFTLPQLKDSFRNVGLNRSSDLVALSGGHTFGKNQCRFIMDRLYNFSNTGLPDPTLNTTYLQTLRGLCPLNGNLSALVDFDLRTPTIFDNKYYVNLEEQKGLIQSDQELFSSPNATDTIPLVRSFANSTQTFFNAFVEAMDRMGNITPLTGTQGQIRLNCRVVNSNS
Assay: spectrophotometric peroxidase assay, […] nm
Assay type: biochemical
Settings: read-out: K m (mM) / Pyrogallol; 3.3 mM H2O2; 100 mM Na-phosphate pH 6.5

Oc1cccc(O)c1O [pyrogallol]
Km: 1.1 ± 0.1 mM
